Laboratory results as given in ChEMBL document CHEMBL1136459, “New antibacterial tetrahydro-4(2H)-thiopyran and thiomorpholine S-oxide and S,S-dioxide phenyloxazolidinones” (Bioorg Med Chem Lett, 2003).
In brackets after ≈: the same amount, converted by molar mass.

How the values were obtained:
Staphylococcus aureus [1] = assay: In vitro antibacterial activity against linezolid-resistant Staphylococcus aureus ATCC 29213 (LRSA).; format: functional
[2] = system: Staphylococcus epidermidis; assay: In vitro antibacterial activity against Staphylococcus epidermidis strains UC12084, 30031, and CDC-CNS90 (SE); format: functional
Moraxella catarrhalis [3] = assay: In vitro antibacterial activity against Moraxella catarrhalis strains 30607 and 30603 (MC).; format: functional
Enterococcus faecium = assay: In vitro antibacterial activity against vancomycin-resistant Enterococcus faecium UC12712 (VRE).
Staphylococcus aureus [4] = assay: In vitro antibacterial activity against Staphylococcus aureus strains UC12673, UC9213, ATCC 29213, and UC9271 (SA); format: functional
Haemophilus influenzae [5] = assay: In vitro antibacterial activity against Haemophilia influenzae strains ATCC 30063 and ATCC 31517; format: functional
Streptococcus pneumoniae [6] = assay: In vitro antibacterial activity against Streptococcus pneumoniae strains ATCC6305 and 31573 (SPN).
Haemophilus influenzae [7] = assay: In vitro antibacterial activity against Haemophilia influenzae strains 30063 and ATCC 31517 (HI); range is 32->64; format: functional
Staphylococcus aureus [8] = assay: In vitro antibacterial activity against Staphylococcus aureus strains UC12673, UC9213, ATCC 29213, and UC9271 (SA); range is 2-4; format: functional
[9] = system: Staphylococcus epidermidis; assay: In vitro antibacterial activity against Staphylococcus epidermidis strains UC12084, 30031, and CDC-CNS90 (SE); range is 32-64; format: functional
Staphylococcus aureus [10] = assay: In vitro antibacterial activity against Staphylococcus aureus strains UC12673, UC9213, ATCC 29213, and UC9271 (SA); range is 2-8; format: functional
[11] = system: Staphylococcus epidermidis; assay: In vitro antibacterial activity against Staphylococcus epidermidis strains UC12084, 30031, and CDC-CNS90 (SE); range is 1-2; format: functional
Moraxella catarrhalis [12] = assay: In vitro antibacterial activity against Moraxella catarrhalis strains 30607 and 30603 (MC); range is 8-16; format: functional
Staphylococcus aureus [13] = assay: In vitro antibacterial activity against Staphylococcus aureus strains UC12673, UC9213, ATCC 29213, and UC9271 (SA); range is 16-32; format: functional
Moraxella catarrhalis [14] = assay: In vitro antibacterial activity against Moraxella catarrhalis strains 30607 and 30603 (MC); range is 32->64; format: functional
Mus musculus [15] = assay: In vivo Efficacy of compound after peroral administration to protect the Staphylococcus aureus mouse septicemia model; format: functional; conditions: po
Haemophilus influenzae [16] = assay: In vitro antibacterial activity against Haemophilia influenzae strains 30063 and ATCC 31517 (HI); range is 8-16; format: functional
Haemophilus influenzae [17] = assay: In vitro antibacterial activity against Haemophilia influenzae strains 30063 and ATCC 31517 (HI); range is 4-8; format: functional
Streptococcus pneumoniae [18] = assay: In vitro antibacterial activity against Streptococcus pneumoniae strains ATCC 6305 and 31573 (SPN); range is 0.5-1
Mus musculus [19] = assay: In vivo Efficacy of compound after peroral administration in mouse; format: functional; conditions: po
Haemophilus influenzae [20] = assay: In vitro antibacterial activity against Haemophilia influenzae strains 30063 and ATCC 31517 (HI); range is 8-32; format: functional
Staphylococcus aureus [21] = assay: In vitro antibacterial activity against Staphylococcus aureus strains UC12673, UC9213, ATCC 29213, and UC9271 (SA); range is 4-8; format: functional
Streptococcus pneumoniae [22] = assay: In vitro antibacterial activity against Streptococcus pneumoniae strains ATCC 6305 and 31573 (SPN); range is 2-4
Streptococcus pneumoniae [23] = assay: In vitro antibacterial activity against Streptococcus pneumoniae strains ATCC 6305 and 31573 (SPN).; format: functional
[24] = system: Staphylococcus epidermidis; assay: In vitro antibacterial activity against Staphylococcus epidermidis strains UC12084, 30031, and CDC-CNS90 (SE); range is 0.5-1; format: functional

Row | SMILES | MIC (Staphylococcus aureus [1]) [µg/mL] | MIC [2] [µg/mL] | MIC (Moraxella catarrhalis [3]) [µg/mL] | MIC (Enterococcus faecium) [µg/mL] | MIC (Haemophilus influenzae [5]) [µg/mL] | MIC [11] [µg/mL] | also measured
1 | O=C1O[C@@H](CNC(=O)C(F)(F)F)CN1c1ccc(N2CC[S+]([O-])CC2)c(F)c1 | > 64 | > 64 | > 64 | > 64 | > 64 |  | MIC (Staphylococcus aureus [4]): > 64 µg/mL; MIC (Streptococcus pneumoniae [6]): > 64 µg/mL
2 | O=C(/C=C/c1ccc(Cl)cc1)NC[C@H]1CN(c2ccc(N3CC[S+]([O-])CC3)c(F)c2)C(=O)O1 | 8 (≈ 16.3 µM) | 1 (≈ 2.03 µM) | 8 (≈ 16.3 µM) | 2 (≈ 4.07 µM) |  |  | MIC (Haemophilus influenzae [7]): 32 µg/mL (≈ 65 µM); MIC (Staphylococcus aureus [8]): 2 µg/mL (≈ 4.07 µM)
3 | COc1ccc(OC)c(C(=O)NC[C@H]2CN(c3ccc(N4CC[S+]([O-])CC4)c(F)c3)C(=O)O2)c1 | > 64 |  | > 64 | > 64 | > 64 |  | MIC [9]: 32 µg/mL (≈ 65.1 µM); MIC (Staphylococcus aureus [4]): ≥ 64 µg/mL
4 | O=C(/C=C/c1ccc(O)cc1)NC[C@H]1CN(c2ccc(C3CC[S+]([O-])CC3)c(F)c2)C(=O)O1 (stereo partly specified) | > 64 |  |  | 4 (≈ 8.46 µM) | > 64 | 1 (≈ 2.12 µM) | MIC (Staphylococcus aureus [10]): 2 µg/mL (≈ 4.23 µM); MIC (Moraxella catarrhalis [12]): 8 µg/mL (≈ 16.9 µM)
5 | O=C(NC[C@H]1CN(c2ccc(N3CC[S+]([O-])CC3)c(F)c2)C(=O)O1)c1csnn1 | > 64 | 8 (≈ 18.2 µM) |  | 16 (≈ 36.4 µM) | 64 (≈ 146 µM) |  | MIC (Staphylococcus aureus [13]): 16 µg/mL (≈ 36.4 µM); MIC (Moraxella catarrhalis [14]): 32 µg/mL (≈ 72.8 µM)
6 | CC(=O)NC[C@H]1CN(c2ccc(N3CCOCC3)c(F)c2)C(=O)O1 [LINEZOLID] | 64 (≈ 190 µM) |  |  |  |  | 1 (≈ 2.96 µM) | ED50 (Mus musculus [15]): 5 mg/kg; MIC (Haemophilus influenzae [16]): > 8 µg/mL
7 | O=C1O[C@@H](CNC(=O)C(F)(F)F)CN1c1ccc(N2CCS(=O)(=O)CC2)c(F)c1 | 16 (≈ 36.4 µM) | 8 (≈ 18.2 µM) |  | 16 (≈ 36.4 µM) | ≥ 64 |  | MIC (Staphylococcus aureus [13]): 16 µg/mL (≈ 36.4 µM); MIC (Moraxella catarrhalis [14]): 32 µg/mL (≈ 72.8 µM)
8 | O=C(CF)NC[C@H]1CN(c2ccc(C3CC[S+]([O-])CC3)c(F)c2)C(=O)O1 (stereo partly specified) | 32 (≈ 82.8 µM) |  | 8 (≈ 20.7 µM) | 4 (≈ 10.4 µM) |  | 1 (≈ 2.59 µM) | MIC (Staphylococcus aureus [8]): 2 µg/mL (≈ 5.18 µM); MIC (Haemophilus influenzae [17]): 4 µg/mL (≈ 10.4 µM); MIC (Streptococcus pneumoniae [18]): 0.5 µg/mL (≈ 1.29 µM); ED50 (Mus musculus [19]): 3.75 mg/kg
9 | CSCC(=O)NC[C@H]1CN(c2ccc(C3CCS(=O)(=O)CC3)c(F)c2)C(=O)O1 | 64 (≈ 149 µM) | 2 (≈ 4.65 µM) | 8 (≈ 18.6 µM) | 4 (≈ 9.29 µM) |  |  | MIC (Haemophilus influenzae [20]): 8 µg/mL (≈ 18.6 µM); MIC (Staphylococcus aureus [21]): 4 µg/mL (≈ 9.29 µM)
10 | O=C(CO)NC[C@H]1CN(c2ccc(C3CC[S+]([O-])CC3)c(F)c2)C(=O)O1 (stereo partly specified) | 64 (≈ 166 µM) | 4 (≈ 10.4 µM) | 8 (≈ 20.8 µM) | 8 (≈ 20.8 µM) | 8 (≈ 20.8 µM) |  | MIC (Streptococcus pneumoniae [22]): 2 µg/mL (≈ 5.2 µM); MIC (Staphylococcus aureus [13]): 16 µg/mL (≈ 41.6 µM)
11 | CC(=O)Oc1ccc(/C=C/C(=O)NC[C@H]2CN(c3ccc(C4CC[S+]([O-])CC4)c(F)c3)C(=O)O2)cc1 (stereo partly specified) |  |  |  |  | 32 (≈ 62.2 µM) | 1 (≈ 1.94 µM) | MIC (Staphylococcus aureus [10]): 2 µg/mL (≈ 3.89 µM); MIC (Streptococcus pneumoniae [23]): 8 µg/mL (≈ 15.5 µM); MIC (Moraxella catarrhalis [12]): 8 µg/mL (≈ 15.5 µM)
12 | CC(=O)NC[C@H]1CN(c2ccc(C3CC[S+]([O-])CC3)c(F)c2)C(=O)O1 (stereo partly specified) | 64 (≈ 174 µM) |  |  | 2 (≈ 5.43 µM) | 8 (≈ 21.7 µM) |  | MIC [24]: 0.5 µg/mL (≈ 1.36 µM); MIC (Staphylococcus aureus [4]): 4 µg/mL (≈ 10.9 µM); MIC (Streptococcus pneumoniae [6]): 0.5 µg/mL (≈ 1.36 µM); MIC (Moraxella catarrhalis [12]): > 8 µg/mL
13 | CC(=O)NC[C@H]1CN(c2ccc(N3CC[S+]([O-])CC3)c(F)c2)C(=O)O1 | > 64 |  | 4 (≈ 10.8 µM) | 2 (≈ 5.41 µM) |  | 1 (≈ 2.71 µM) | MIC (Haemophilus influenzae [17]): > 4 µg/mL; MIC (Staphylococcus aureus [21]): 4 µg/mL (≈ 10.8 µM); MIC (Streptococcus pneumoniae [6]): 1 µg/mL (≈ 2.71 µM)
